Read-outs that look alike come from different tables or passages of the source.
How the values were obtained:
SU-Ph2 cells = assay: Cell growth inhibition assay, SU-Ph2 cells; assay type: cell-based, human; settings: SU-Ph2, 48 hours
IL3, CSF2 and CSF2RB = assay: qRT-PCR of RUNX1 target genes in MV4-11 cells; assay type: cell-based, human; settings: 5 μM, 6 hours
MV4-11 cells = assay: Xenograft AML mouse model (MV4-11); assay type: in vivo; settings: NOG mice with MV4-11, day 14
MKN45 cells = assay: Xenograft gastric cancer mouse model (MKN45); assay type: in vivo
MYL cells = assay: PI-AnnexinV apoptosis staining, MYL cells; assay type: cell-based, human; settings: 1.5 μM or 3 μM, 48 hours, dependent on concentration
Description: In addition, 1.5 μM or 3 μM of Chb-M′ was administered to MYL cells. After 48 hours, the percentage of apoptosis was analyzed by PI-AnnexinV apoptosis staining. As a result, early apoptosis rates were increased dependent on the concentration of Chb-M′ (FIG. 26-4).

[1] = test system: E-selectin, P-selectin, Tie2, ICAM-1, VCAM-1, Jagged-1; assay: qRT-PCR of adhesion molecule genes in HUVEC; assay type: cell-based, human; settings: 0.5 μM, 1 μM, or 5 μM, 6 hours
[2] = test system: Her2, p-Her2, SOS1, p-ERK, ERK, p-AKT, AKT; assay: Western blotting of Her2 signalling in MKN45 gastric cancer cells; assay type: cell-based, human; settings: 48 hours
RERF-LC-MS = assay: Cell viability, lung adenocarcinoma RERF-LC-MS; assay type: cell-based, human; settings: RERF-LC-MS (EGFR wild-type p53-mutated), 48 hours
PC-3 cells = assay: PI-AnnexinV apoptosis staining, PC-3 cells; assay type: cell-based, human; settings: PC-3, 3 μM, 48 hours and 72 hours
Description: To PC-3 cells, 3 μM Chb-M′ was administered. After 48 hours and 72 hours, the percentage of apoptosis was analyzed by PI-AnnexinV apoptosis staining. As a control, DMSO was administered. As a result, the apoptosis rate was increased depending on the […] of Chb-M′ (FIG. 46).

ROR1 and ROR2 [3] = assay: qRT-PCR of ROR1 and ROR2 in DAOY; assay type: cell-based, human; settings: 1 μM, 6 hours
Description: A total RNA was isolated with RNeasy mini kit (Qiagen) and reverse transcribed with Reverse script kit (TOYOBO) to generate cDNA. Real-time quantitative polymerase chain reaction (PCR) was carried out with 7500 Real-Time PCR System (Applied Biosystems) according to the manufacturer's instructions. Results were normalized to GAPDH levels. Relative expression levels were calculated using the 2-ΔΔCt method.
To medulloblastoma cell line DAOY, 1 μM Chb-M′ was administered. After 6 hours, the mRNA levels of cancer promoting factors ROR1 and ROR2, which are important for medulloblastoma, were evaluated by qRT-PCR (see the above-described “Real-time quantitative PCR (qRT-PCR)”). As a control, DMSO was administered. In the figure, the mRNA expression levels of ROR1 and ROR2 are shown as values relative to those in the DMSO-treated group. As evident from FIG. 48, the expressions of ROR family were suppressed by Chb-M′ at transcriptional levels.

ROR1 and ROR2 [4] = assay: Western blotting of ROR1 and ROR2 in DAOY; assay type: cell-based, human; settings: 1 μM, 24 hours
Description: Cells were washed twice with ice cold phosphate-buffered saline (PBS) and harvested in protein lysis buffer [50 mM Tris (pH 7.4), 100 mM NaCl, 0.1 mM EDTA, 1 mM phenylmethylsulfonyl fluoride, 1 mM β-glycerophosphate, 2.5 mM sodium pyrophosphate, 1 mM Na3VO4, lx protease inhibitor (Roche) and PhosSTOP (Roche)]. Whole cell extracts were separated by SDS-polyacrylamide gel electrophoresis (SDS-PAGE) and electrotransferred onto polyvinylidene difluoride membranes. Membranes were probed with the following antibodies: anti-Ctip1 antibody (Abcam, ab19487), anti-TRIM24 antibody (Bethyl Laboratories, Inc), anti-RUNX1 antibody (A-2), anti-GAPDH (FL-335), anti-p21 (C-19), anti-Bax (N-20) antibodies (Santa Cruz Biotechnology, Inc.), anti-RUNX2, anti-RUNX3, anti-p53 antibodies (Cell Signaling Technology), anti-CBFβ antibody (FL-182, Santa Cruz Biotechnology, Inc.), anti-cleaved caspase-3 antibody (5A1E, Cell Signaling Technology), anti-PARP antibody (46D11, Cell Signaling Technology). […] Blots were detected using Chemi-Lumi One Super (nacalai tesque, Inc.) and ChemiDoc™ XRS+ Imager (Bio-Rad Laboratories, Inc.), as recommended by the manufacturers. Protein levels were quantified with Image Lab Software (Bio-Rad Laboratories, Inc.).
To DAOY cells, 1 μM Chb-M′ was administered. […] The expression of ROR1 was too weak to be detected.

HMC-1.2 cell line = assay: Cell proliferation of HMC-1.2 mast cells; assay type: cell-based, human
DU-145 cells = settings: read-out: IC50 (μM) in DU-145 cells; DU-145 (androgen-independent), 48 hours

In the case of `CN(C)CCCNC(=O)c1cc(NC(=O)c2cc(NC(=O)c3cc(NC(=O)c4cc(NC(=O)CCCNC(=O)c5nc(NC(=O)c6nc(NC(=O)c7cc(NC(=O)c8nc(NC(=O)CCNC(=O)CCCc9ccc(N(CCCl)CCCl)cc9)cn8C)cn7C)cn6C)cn5C)cn4C)cn3C)cn2C)cn1C` [Chb-M′], the “IC50 compared with that of imatinib” value (SU-Ph2 cells) is reported as “lower IC50 values”, the “Expressions of RUNX1 target genes (IL3, CSF2, and CSF2RB), mRNA” value (IL3, CSF2 and CSF2RB) is reported as “effectively inhibited” and the “H&E staining of bone marrow” value (MV4-11 cells) is reported as “homogeneity was lost”. The “hCD45 staining of bone marrow (human leukemia cells)” value (MV4-11 cells) was “most of the brown parts lost”, the “Tumor growth (tumor volume)” value (MKN45 cells; MKN45 xenograft, 320 μg/kg IV twice a week, to day 35) was “almost no change in tumor size” and the “Size of gastric cancer (IVIS)” value (MKN45 cells; day 21 after transplantation, after total 4 administrations) was “decreased”. The “Size of gastric cancer (IVIS)” value (MKN45 cells; day 35 after transplantation, after total 8 administrations) was “slightly grew”, the Early apoptosis rates (MYL cells) was “increased” and the “E-selectin, P-selectin, and VCAM-1 mRNA levels” value [1] was “markedly suppressed”. The “Expression of SOS1 (protein)” value ([2]; MKN45, 0.1 μM, 1 μM, or 10 μM) was “suppressed”, the “Phosphorylation of Her2” value ([2]; MKN45, 0.1 μM, 1 μM, or 10 μM) was “suppressed” and the “Expression of Her2 protein” value ([2]; MKN45, 1 μM) was “suppressed”. The “Phosphorylated forms of ERK protein and AKT protein” value ([2]; MKN45, 1 μM) was “suppressed”, the “Total amounts of ERK protein and AKT protein” value ([2]; MKN45, 1 μM) was “not changed” and the “IC50 compared with the EGFR inhibitor (gefitinib)” value (RERF-LC-MS) was “lower IC50 values”. For the same compound, the Apoptosis rate (PC-3 cells) was “increased”, the “Expressions of ROR family (ROR1 and ROR2 mRNA)” value (ROR1 and ROR2 [3]) was “suppressed” and the “Expression of ROR2 at a protein level” value (ROR1 and ROR2 [4]) was “suppressed”. The “Cell proliferation of mast cells having mutated c-kit” value (HMC-1.2 cell line) was “suppression”, the “CI (Fa = 0.5)” value (KG1a; p53null, concomitant use of Chb-M′ and PRIMA-1, Chou-Talalay, CI<1 synergism) was 2.01 and the IC50 (KG1a; read-out: IC50 (μM) of Chb-M′ in concomitant use with PRIMA-1 (5 μM), p53null, 48 hours, with 5 μM PRIMA-1) was over 100 µM. For the same compound, the IC50 (KG1a; read-out: IC50 (μM) of Chb-M′ single agent administration, p53null, 48 hours) was over 100 µM, the IC50 (DU-145 cells) was 1.82 µM and the IC50 (NB4 (p53MT); culture time 48 hours) was 357 nM. It also gave an IC50 (NB4 (p53MT); culture time 72 hours) of 44.6 nM.
